The values that follow come from EP0071374A1, “Nitrosourea derivatives having anti-tumour and anti-bacterial activity” (KUREHA KAGAKU KOGYO KABUSHIKI KAISHA, priority 1981, dated 1983).

Series [1] relates to Escherichia coli. Kind of series: Antibacterial activity in vitro, agar plate dilution. Also on record: key: + means the degree of inhibition of the growth of E. Coli; the larger the number of +, the larger the inhibition; ++: + means the degree of inhibition of the growth of E. Coli; the larger the number of +, the larger the inhibition; +++: + means the degree of inhibition of the growth of E. Coli; the larger the number of +, the larger the inhibition; - means that no inhibition of the growth of E. coli was observed. It is filed as cell-based. As to conditions: 18 hours at 37°C, Heart infusion agar. As to the method: Antibacterial activity: • i) A series of 2 times dilution of aqueous solution of each of the present compounds were prepared, and a plate culture medium was prepared by mixing each series with Heart infusion agar culture medium. A strain of Escherichia coli cultured in trypto-soy bouillon at 37°C for 18 hours was inoculated on the thus prepared culture medium, and after culturing for 18 hours at 37°C, the degree of proliferation of the inoculated bacteria was observed, the inoculum being a plutinum loop-full.

Series [2] concerns V-7 tumour. The series is described as follows: Anti-tumour effect against V-7 tumour on a rabbit. The format is in vivo. As to conditions: survival days vs not-administered control rabbits; dose 10 mg/kg on the 7th day and 11th day of the transplantation. As to the method:
Anti-tumour effect against V-7 tumour on a rabbit: • The cancer cells prepared by extirpating the solid tumour transplated and proliferated in the femoral part of a rabbit, cutting finely and having passed through stainless steel mesh of Tyler standard mesh of ? 200 were transplanted to the thinner muscle of the femoral part of a rabbit by using an injector at a rate of 1.5 x 10^7 cells/animal. On the 7th day and llth day of the transplantation, the present compound was administered to the transplanted rabbit. The prolongation ratio of the rabbit was calculated by the comparison of the survival days of the administered rabbits and the not-administered control rabbits.

Series [3] concerns L-1210 leukemia. The series is described as follows: Anti-tumour effect against L-1210 leukemia on mouse. It is filed as in vivo. Conditions: T/C x 100 of average survival days; dose 10 mg/kg intraperitoneally once a day for 5 days, starting 24 hours after transplantation of 1 x 10^5 cells/animal. As to the method: Anti-tumour effect against L-1210 leukemia on mouse: • The successively cultured L-1210 leukemia cells in the ascites of a mouse were transplanted intraperitoneally to a group of the mouse at a rate of 1 x 10^5 cells/animal, and after 24 hours of the transplantation, a solution of each of the present compounds dissolved in an aqueous physiological saline solution was intraperitoneally administered to the group of the mouse once a day for 5 days running. By observing the state of the mice, the average survival days of the administered mice (T) and those of the control group (C) were obtained to calculate the prolongation ratio of the mouse's life (T/C x 100).

The nature of series [4]: Solubility in water. It is filed as physicochemical.
Series [5] in a line: Side effects: nephrotoxicity (albuminurea). It is filed as in vivo, JCL-ICR mouse. As to conditions: orally 10 mg/kg once a day for 5 days; for Nephrotoxicity: albuminurea. As to the method:
Side effects: • The side effects of the present compounds were examined using JCL-ICR mouse as the experimental animal.
Each of the present compounds was orally administered to a group of the mouse at a daily dose rate of 10 mg/kg once a day for 5 days running, the same procedure being carried out on the other group of the mouse by administering BCNU at the same rate.

Consider `CCC(CO)(CO)NC(=O)N(CCCl)N=O` [2-Ethyl-2-[3-(2-chloroethyl)-3-nitrosoureido]-1,3-propanediol], for which the “degree of inhibition of the growth of E. coli” value in series [1] (Diluted concentration 1/2) is reported as “++”; in series [1] (Diluted concentration 1/4), “+”; in series [1] (Diluted concentration 1/8), “+”; in series [1] (Diluted concentration 1) it was “+++”. Further, the Prolongation ratio is on record as 230% in series [2] and 405% in series [3]. Also, the “Solubility in Water” value in series [4] is reported as “good”. For the same compound, the Nephrotoxicity entry in series [5] is listed as “+ (+ means that albuminurea was observed in one to two animals of the total ten animals.)”.

For the compound `O=NN(CCCl)C(=O)NCCCl` [BCNU, 1,3-Bis(2-chloroethyl)-1-nitrosourea, reference compound], the “degree of inhibition of the growth of E. coli” value was “+” in series [1] (Diluted concentration 1/2), “-” in series [1] (Diluted concentration 1/4), “-” in series [1] (Diluted concentration 1/8) and “+” in series [1] (Diluted concentration 1). The results for the Prolongation ratio in series [2] and in series [3] were 140% and 204%, respectively. In addition, in series [4], the “Solubility in Water” value is listed as “not soluble”. Further, the Nephrotoxicity entry in series [5] was “+++ (+++ means that albuminurea was observed in eight to nine animals of the total ten animals.)”. Also, the degree of albuminurea entry in series [5] (result in words) is given as “severely”.

For `O=NN(CCCl)C(=O)NCC(O)CO` (centres unmarked) [3-[3-(2-Chloroethyl)-3-nitrosoureido]-1,2-propanediol], the “degree of inhibition of the growth of E. coli” value is “++” in series [1] (Diluted concentration 1/2), “+” in series [1] (Diluted concentration 1/4), “+” in series [1] (Diluted concentration 1/8) and “+++” in series [1] (Diluted concentration 1). Further, the Prolongation ratio was 215% in series [2] and 420% in series [3]. In addition, in series [4], the “Solubility in Water” value is given as “good”. Further, the Nephrotoxicity result in series [5] was “+ (+ means that albuminurea was observed in one to two animals of the total ten animals.)”.

As to `CC(CO)(CO)NC(=O)N(CCCl)N=O` [2-Methyl-2-[3-(2-chloroethyl)-3-nitrosoureido]-1,3-propanediol], the “degree of inhibition of the growth of E. coli” value in series [1] (Diluted concentration 1/2) is given as “++”; in series [1] (Diluted concentration 1/4), “++”; in series [1] (Diluted concentration 1/8), “+”; in series [1] (Diluted concentration 1), “+++”. Further, the Prolongation ratio in series [2] worked out at 205%; in series [3] it was 410%. Moreover, the “Solubility in Water” value in series [4] was “good”. The Nephrotoxicity entry in series [5] was “+ (+ means that albuminurea was observed in one to two animals of the total ten animals.)”.

For the compound `CC(NC(=O)N(CCCl)N=O)C(O)CO` (centres unmarked) [3-[3-(2-Chloroethyl)-3-nitrosoureido]-1,2-butanediol], the “degree of inhibition of the growth of E. coli” value is recorded as “++” in series [1] (Diluted concentration 1/2), “+” in series [1] (Diluted concentration 1/4), “+” in series [1] (Diluted concentration 1/8) and “+++” in series [1] (Diluted concentration 1). The Prolongation ratio in series [2] worked out at 210%; in series [3], 430%. In series [4], the “Solubility in Water” value was “good”. The Nephrotoxicity result in series [5] is reported as “+ (+ means that albuminurea was observed in one to two animals of the total ten animals.)”.
